Measured values as given in US8969408B2, “Use of lignan-type compounds or extract of nutmeg or aril of nutmeg comprising the same” (Biocare Co., Ltd., priority 2007, dated 2015).

What was measured:
Type in all cases: cell-based
Melan-a cells = experiment: Melanin production inhibition activity in Melan-a cells
Experimental: Specifically, Melan-a cells were placed on a 6-well plate (melanin quantitated) at a concentration of 2×10^5 cells/mL (final volume=3 mL) and cultured in a 10% CO2 incubator (MCO-20AIC, Sanyo) at 37° C., using RPMI 1640 containing 10% FBS and 2 μM TPA (phorbol-12-myristate 13-acetate), for 24 hours. After removing the culture medium, the nutmeg ethanol extract prepared in Example 1-1 was added to RPMI 1640 medium and treated every day for 3 days. 5 days later, the culture medium was removed from the 6-well plate and, after treating with 0.25% trypsin-EDTA solution (Sigma Chemical Co.), cell pellets were collected and transferred to a 1.5 mL tube. After centrifuging at 10,000 rpm for 10 minutes, the supernatant was removed. Thus obtained pellets were dried at 60° C. and added to 100 μL of 1N NaOH in order to dissolve melanin contained in the cells. The solution was diluted with PBS and absorbance was measured at 475 nm using an ELISA reader. Melanin content was calculated according to the following Equation 1. The group to which the nutmeg ethanol extract was not used served as the control group. [formula] […] Melan-a cells were treated with the […] isolated in Example 2-1, and the degree of melanin production was measured in the same manner as Test Example 1-1.

tyrosinase [1] = molecular target: T1, tyrosinase (Mus musculus, UniProt P11344); experiment: Tyrosinase inhibition activity (DOPA chrome production) in treated Melan-a cells
T1 construct: endogenous in cells; host or cells: Melan-a cells (melanocytes)
T1 sequence (P11344 19-533): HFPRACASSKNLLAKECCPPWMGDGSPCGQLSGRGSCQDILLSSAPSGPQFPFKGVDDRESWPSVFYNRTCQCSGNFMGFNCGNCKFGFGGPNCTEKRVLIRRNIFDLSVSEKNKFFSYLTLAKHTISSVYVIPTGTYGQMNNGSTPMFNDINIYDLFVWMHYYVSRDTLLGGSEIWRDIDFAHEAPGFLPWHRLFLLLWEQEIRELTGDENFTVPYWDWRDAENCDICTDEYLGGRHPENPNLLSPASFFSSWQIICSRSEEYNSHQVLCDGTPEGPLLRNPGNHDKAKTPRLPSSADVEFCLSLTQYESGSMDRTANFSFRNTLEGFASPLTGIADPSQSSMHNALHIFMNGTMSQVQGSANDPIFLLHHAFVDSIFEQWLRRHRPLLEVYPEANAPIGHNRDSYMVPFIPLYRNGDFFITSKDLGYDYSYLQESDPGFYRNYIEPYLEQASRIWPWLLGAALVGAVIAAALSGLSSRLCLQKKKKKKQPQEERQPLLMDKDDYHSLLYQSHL
Experimental: 5 days later, the culture medium was removed from the 6-well plate and, after treating with 0.25% trypsin-EDTA solution (Sigma Chemical Co.), cell pellets were collected and transferred to a 1.5 mL tube. After adding 200 μL of phosphate buffer (pH 6.8) followed by centrifuging at 10,000 rpm for 10 minutes, the supernatant was collected. 150 μL of the supernatant was moved to a 96-well microplate and 50 μL of catechol was added. After culturing at 37° C. for 30 minutes, the amount of produced DOPA chrome was determined by measuring absorbance at 490 nm using a microplate reader.

tyrosinase [2] = experiment: Inhibition of expression of tyrosinase (Western blotting), Melan-a cells; details: result in words
Experimental: (§1) Western blotting and Bradford protein assay were carried out in order to investigate if the nutmeg ethanol extract prepared in Example 1-1 inhibits the expression of tyrosinase, tyrosinase-related protein 1 (TRP-1) and tyrosinase-related proteins 2 (TRP-2).
(§2) Specifically, proteins were extracted from the cells treated in Test Example 1-1 with the nutmeg ethanol extract and subjected to electrophoresis in 10% SDS-polyacrylamide gel. Then, the proteins were transferred from the gel to a nitrocellulose membrane. After treating with 5% skim milk at room temperature for 1 hour, primary antibodies of tyrosinase, TRP-1 and TRP-2 diluted in 5% skim milk to 1:1000 were added and allowed to be incubated at room temperature for 2 hours. After the incubation, the membrane was washed with Tris-buffer saline Tween 20(TBST) twice, for 10 minutes per each, while shaking. Secondary antibodies which recognize the primary antibodies, diluted in 5% skim milk to 1:1000, were added and allowed to be incubated at room temperature for 1 hour. As for the primary antibodies, the membrane was washed with TBST three times, for 10 minutes per each, while shaking, and subjected to development by chemiluminescence.
(§3) Melan-a cells were treated with the macelignan isolated in Example 2-1, and it was investigated if the expression of tyrosinase, TRP-1 and TRP-2 was inhibited, in the same manner as Test Example 3-1.

[3] = tested on: tyrosinase-related protein 1 (TRP-1); experiment: Inhibition of expression of TRP-1 (Western blotting), Melan-a cells; details: result in words
Experimental: as §1, §2, §3

[4] = tested on: tyrosinase-related proteins 2 (TRP-2); experiment: Inhibition of expression of TRP-2 (Western blotting), Melan-a cells; details: result in words
Experimental: as §1, §2, §3

With `C/C=C/c1cc(OC)c2c(c1)[C@@H](C)[C@H](c1ccc3c(c1)OCO3)O2` [licarin E, 5-(7-methoxy-3-methyl-5-propenyl-2,3-dihydro-benzofuran-2-yl)-benzo[1,3]dioxole] the inhibition at 50 µM (Melan-a cells; 50 μM) was roughly 58.4% and the “DOPA chrome production inhibition” value (tyrosinase [1]; concentration not given) was “about 60.04%”.

`COc1cc(C[C@H](C)[C@H](C)Cc2ccc3c(c2)OCO3)ccc1O` [macelignan, 4-((2S,3R)-4-benzo[1,3]dioxol-5-yl-2,3-dimethyl-butyl)-2-methoxyphenol] was tested, and the “melanin production inhibition activity (FIG. 1, FIG. 2)” value (Melan-a cells; result in words, P<0.01) was “superior melanin production inhibition activity”, the “DOPA chrome production / tyrosinase activity (FIG. 3, FIG. 4)” value (tyrosinase [1]; result in words, P<0.01) was “superior DOPA chrome production inhibition activity” and the “expression of tyrosinase (FIG. 5, FIG. 6)” value (tyrosinase [2]) was “could inhibit the expression”. For the same compound, the “expression of TRP-1 (FIG. 5, FIG. 6)” value [3] was “could inhibit the expression” and the “expression of TRP-2 (FIG. 5, FIG. 6)” value [4] was “could inhibit the expression”.
